Laboratory results taken from the supplement of paper PMC12463676, “Small-molecule dissolution of stress granules by redox modulation benefits ALS models” (Nature Chemical Biology, 2025).

Tests used:
potassium arsenate = compound: O=[As]([O-])(O)O.[K+] [potassium arsenate]; assay: thermal stability z-score vs DMSO; higher = more thermally stabilized by treatment; details: HeLa; arsenate concentration 1 mM
Description: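 Cellular thermal proteome profiling in HeLa cells treated with 1 mM arsenate for 1 h (DMSO pretreatment), heated to ten temperatures (37-66.3 °C). Soluble protein was quantified by TMT mass spectrometry relative to DMSO controls; the thermal stability score was transformed to a z-score; mean of n = 3 experiments.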

lipoamide = compound: NC(=O)CCCCC1CCSS1 [lipoamide]; assay: as above; details: HeLa, lipoamide concentration 100 µM
Description: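 Cellular thermal proteome profiling in HeLa cells. Cells were treated with 100 µM lipoamide for 1 h, with or without 1 mM arsenate for a further 1 h, then heated to ten temperatures (37-66.3 °C), and soluble protein was quantified by TMT mass spectrometry relative to 0.1% DMSO controls. The thermal stability score (sum of log2 fold changes minus the abundance score) was transformed to a z-score; mean of n = 3 experiments.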

[1] = arsenate co-treatment: 1 mM arsenate 1 h
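Note: each temperature applied for 3 min, abundance score taken as mean log2 fold change at the two lowest temperatures, z-score obtained by mean subtraction and division by SD.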

UniProt Q9HC44, sequence (Q9HC44 whole entry): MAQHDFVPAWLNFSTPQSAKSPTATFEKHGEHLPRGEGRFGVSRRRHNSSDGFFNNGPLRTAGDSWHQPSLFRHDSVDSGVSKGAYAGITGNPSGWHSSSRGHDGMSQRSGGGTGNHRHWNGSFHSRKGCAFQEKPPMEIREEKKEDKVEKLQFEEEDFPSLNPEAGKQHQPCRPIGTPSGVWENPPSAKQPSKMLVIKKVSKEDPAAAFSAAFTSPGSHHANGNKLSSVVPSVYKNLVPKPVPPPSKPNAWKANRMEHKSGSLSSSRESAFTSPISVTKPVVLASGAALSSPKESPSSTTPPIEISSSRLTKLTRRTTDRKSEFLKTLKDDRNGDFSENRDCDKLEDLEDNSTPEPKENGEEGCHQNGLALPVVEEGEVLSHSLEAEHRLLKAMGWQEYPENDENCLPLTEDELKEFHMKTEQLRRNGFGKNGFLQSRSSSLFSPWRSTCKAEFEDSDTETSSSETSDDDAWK
UniProt Q9H4A6, sequence (Q9H4A6 whole entry): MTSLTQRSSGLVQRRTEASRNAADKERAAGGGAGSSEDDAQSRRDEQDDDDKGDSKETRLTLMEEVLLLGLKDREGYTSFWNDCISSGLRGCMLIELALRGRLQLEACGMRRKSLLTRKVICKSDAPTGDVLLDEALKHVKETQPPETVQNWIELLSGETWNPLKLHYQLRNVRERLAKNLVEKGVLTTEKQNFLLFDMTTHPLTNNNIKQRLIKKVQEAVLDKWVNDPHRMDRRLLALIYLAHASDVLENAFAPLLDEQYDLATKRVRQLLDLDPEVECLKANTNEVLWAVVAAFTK
UniProt Q9P2T1, sequence (Q9P2T1 whole entry): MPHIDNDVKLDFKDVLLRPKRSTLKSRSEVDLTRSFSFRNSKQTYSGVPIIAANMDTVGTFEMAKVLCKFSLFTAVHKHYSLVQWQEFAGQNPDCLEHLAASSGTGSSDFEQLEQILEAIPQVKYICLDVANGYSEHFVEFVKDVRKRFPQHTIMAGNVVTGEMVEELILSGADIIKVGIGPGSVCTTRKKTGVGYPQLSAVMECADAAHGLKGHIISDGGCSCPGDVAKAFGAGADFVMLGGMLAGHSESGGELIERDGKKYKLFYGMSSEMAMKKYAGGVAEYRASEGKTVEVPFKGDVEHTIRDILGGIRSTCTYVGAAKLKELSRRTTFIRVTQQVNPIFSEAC
UniProt Q9UKJ3, sequence (Q9UKJ3 whole entry): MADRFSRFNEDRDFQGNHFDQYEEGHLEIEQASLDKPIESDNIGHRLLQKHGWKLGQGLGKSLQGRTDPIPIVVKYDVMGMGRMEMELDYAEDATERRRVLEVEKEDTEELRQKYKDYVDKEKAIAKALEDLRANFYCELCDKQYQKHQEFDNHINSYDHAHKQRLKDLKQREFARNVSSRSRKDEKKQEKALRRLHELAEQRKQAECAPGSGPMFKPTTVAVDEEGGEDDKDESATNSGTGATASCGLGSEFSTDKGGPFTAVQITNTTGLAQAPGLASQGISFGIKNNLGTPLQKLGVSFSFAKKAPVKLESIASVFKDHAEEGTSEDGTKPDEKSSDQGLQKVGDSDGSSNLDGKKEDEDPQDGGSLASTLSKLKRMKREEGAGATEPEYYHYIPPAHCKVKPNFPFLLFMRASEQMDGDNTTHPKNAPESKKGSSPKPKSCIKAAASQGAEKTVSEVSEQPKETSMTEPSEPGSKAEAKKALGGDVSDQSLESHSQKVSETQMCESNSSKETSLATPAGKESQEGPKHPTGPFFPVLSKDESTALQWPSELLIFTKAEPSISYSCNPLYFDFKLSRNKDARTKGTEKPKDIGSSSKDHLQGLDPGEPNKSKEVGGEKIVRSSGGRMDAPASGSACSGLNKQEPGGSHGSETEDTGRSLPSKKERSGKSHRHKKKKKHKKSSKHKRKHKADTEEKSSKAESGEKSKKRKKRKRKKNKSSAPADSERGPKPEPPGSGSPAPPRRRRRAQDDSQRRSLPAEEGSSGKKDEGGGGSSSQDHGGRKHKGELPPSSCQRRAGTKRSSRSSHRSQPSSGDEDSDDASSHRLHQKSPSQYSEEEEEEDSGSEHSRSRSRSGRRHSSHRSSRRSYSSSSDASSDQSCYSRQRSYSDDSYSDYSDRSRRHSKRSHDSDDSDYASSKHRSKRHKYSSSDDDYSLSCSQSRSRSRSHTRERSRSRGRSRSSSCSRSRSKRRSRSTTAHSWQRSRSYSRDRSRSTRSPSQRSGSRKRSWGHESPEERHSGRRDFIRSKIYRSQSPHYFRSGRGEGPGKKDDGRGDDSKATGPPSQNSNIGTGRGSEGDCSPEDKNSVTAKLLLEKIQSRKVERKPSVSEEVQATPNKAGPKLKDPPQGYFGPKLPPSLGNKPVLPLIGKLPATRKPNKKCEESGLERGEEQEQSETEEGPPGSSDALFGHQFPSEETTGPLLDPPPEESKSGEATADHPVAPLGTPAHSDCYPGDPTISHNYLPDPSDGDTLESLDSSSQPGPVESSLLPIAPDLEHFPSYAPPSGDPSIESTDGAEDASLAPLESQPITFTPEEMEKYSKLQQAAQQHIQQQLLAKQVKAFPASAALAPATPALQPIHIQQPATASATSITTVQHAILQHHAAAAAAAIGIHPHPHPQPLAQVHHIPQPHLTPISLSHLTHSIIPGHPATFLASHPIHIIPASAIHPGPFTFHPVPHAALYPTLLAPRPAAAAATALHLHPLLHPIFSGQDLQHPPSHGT
UniProt Q9NW75, sequence (Q9NW75 whole entry): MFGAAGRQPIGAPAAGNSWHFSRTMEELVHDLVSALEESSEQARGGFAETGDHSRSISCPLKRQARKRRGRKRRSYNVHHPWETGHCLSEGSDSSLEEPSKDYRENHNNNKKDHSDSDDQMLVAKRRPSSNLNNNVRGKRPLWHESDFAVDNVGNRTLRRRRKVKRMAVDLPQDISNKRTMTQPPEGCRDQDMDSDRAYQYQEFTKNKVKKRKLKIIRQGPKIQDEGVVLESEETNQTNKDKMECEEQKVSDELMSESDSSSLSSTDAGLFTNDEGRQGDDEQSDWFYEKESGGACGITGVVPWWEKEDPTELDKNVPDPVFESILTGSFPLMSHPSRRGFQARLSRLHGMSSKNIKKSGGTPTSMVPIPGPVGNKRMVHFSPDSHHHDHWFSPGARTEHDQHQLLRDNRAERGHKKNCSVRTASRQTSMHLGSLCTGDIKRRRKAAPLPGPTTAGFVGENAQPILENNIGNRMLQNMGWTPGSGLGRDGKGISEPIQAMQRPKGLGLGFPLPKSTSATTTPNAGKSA
UniProt Q08378, sequence (Q08378 whole entry): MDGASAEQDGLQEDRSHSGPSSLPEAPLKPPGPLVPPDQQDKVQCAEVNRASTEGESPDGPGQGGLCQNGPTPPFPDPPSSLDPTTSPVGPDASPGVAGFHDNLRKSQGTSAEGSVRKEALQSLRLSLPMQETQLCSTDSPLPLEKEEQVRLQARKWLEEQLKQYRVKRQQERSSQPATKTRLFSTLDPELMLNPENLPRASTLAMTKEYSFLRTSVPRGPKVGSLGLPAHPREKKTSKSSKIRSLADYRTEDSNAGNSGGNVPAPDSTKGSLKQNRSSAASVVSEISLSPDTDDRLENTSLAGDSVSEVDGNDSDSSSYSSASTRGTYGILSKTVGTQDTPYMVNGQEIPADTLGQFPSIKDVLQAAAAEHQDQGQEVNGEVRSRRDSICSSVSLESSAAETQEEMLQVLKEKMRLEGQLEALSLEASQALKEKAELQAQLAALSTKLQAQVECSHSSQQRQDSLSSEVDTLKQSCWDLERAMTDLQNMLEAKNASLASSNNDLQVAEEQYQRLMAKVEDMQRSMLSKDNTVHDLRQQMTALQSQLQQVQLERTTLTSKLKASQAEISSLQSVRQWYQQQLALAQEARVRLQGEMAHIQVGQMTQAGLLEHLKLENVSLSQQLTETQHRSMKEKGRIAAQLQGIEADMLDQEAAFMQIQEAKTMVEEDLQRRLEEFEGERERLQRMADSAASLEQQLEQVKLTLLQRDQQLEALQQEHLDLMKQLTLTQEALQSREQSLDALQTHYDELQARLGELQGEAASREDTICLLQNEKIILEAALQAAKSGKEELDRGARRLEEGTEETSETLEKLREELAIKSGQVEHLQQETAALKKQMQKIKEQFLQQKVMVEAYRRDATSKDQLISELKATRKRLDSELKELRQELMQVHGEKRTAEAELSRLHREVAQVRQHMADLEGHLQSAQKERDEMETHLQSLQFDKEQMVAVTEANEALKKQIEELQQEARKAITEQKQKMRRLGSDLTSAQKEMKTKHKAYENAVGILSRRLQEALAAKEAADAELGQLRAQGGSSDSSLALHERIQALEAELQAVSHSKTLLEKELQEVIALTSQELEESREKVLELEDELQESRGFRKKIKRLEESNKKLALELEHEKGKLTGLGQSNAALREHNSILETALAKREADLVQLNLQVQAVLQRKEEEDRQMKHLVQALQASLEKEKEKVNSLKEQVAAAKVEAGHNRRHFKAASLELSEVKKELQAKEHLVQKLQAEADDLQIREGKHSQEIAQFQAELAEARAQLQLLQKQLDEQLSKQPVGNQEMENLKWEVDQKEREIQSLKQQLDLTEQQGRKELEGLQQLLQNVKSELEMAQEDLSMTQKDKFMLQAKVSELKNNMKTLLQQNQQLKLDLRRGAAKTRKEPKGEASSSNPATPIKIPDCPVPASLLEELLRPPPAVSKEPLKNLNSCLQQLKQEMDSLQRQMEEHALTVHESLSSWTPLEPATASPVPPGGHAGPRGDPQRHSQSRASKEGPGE
UniProt Q8N954, sequence (Q8N954 whole entry): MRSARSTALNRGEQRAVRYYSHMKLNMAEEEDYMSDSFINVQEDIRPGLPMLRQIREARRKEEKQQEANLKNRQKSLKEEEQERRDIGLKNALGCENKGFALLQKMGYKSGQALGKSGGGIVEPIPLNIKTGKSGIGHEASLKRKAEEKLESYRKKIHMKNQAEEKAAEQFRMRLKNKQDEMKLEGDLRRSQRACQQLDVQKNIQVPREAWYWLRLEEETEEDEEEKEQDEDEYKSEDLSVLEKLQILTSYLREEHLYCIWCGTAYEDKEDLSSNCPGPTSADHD
UniProt Q9UBI6, sequence (Q9UBI6 whole entry): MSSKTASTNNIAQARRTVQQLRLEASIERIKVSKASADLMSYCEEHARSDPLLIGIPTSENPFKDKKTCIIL

Target | thermal stability z-score (potassium arsenate) | thermal stability z-score (lipoamide; [1]) | thermal stability z-score (lipoamide; arsenate co-treatment: none)
GMPPB (UniProt Q9Y5P6) | -0.104 | -0.503 | -0.625
GMPR2 (UniProt Q9P2T1) | 0.121 | 0.37 | 0.368
GMPS (UniProt P49915) | -0.42 | -0.853 | -0.447
GNA11 (UniProt P29992) | -1.21 | 0.729 | 0.404
GNA13 (UniProt Q14344) | -0.441 | 0.187 | 0.347
GNAI1 (UniProt P63096) | 0.0642 | 0.913 | 1.18
GNAI2 (UniProt P04899) | -0.276 | 0.83 | 0.313
GNAI3 (UniProt P08754) | -1.24 | 0.0735 | 0.0764
GNAO1 (UniProt P09471) | -0.313 | 0.151 | -0.44
GNAQ (UniProt P50148) | -1.39 | -0.312 | 0.15
GNAS | 0.0562 | 0.278 | 0.172
GNB1 (UniProt P62873) | -0.776 | 0.979 | 0.0629
GNB1L (UniProt Q9BYB4) | -0.589 | 0.757 | -0.25
GNB2 (UniProt P62879) | -0.44 | 0.297 | 1.21
GNB4 (UniProt Q9HAV0) | -0.65 | 0.329 | 0.753
GNE (UniProt Q9Y223) | 0.317 | 0.652 | 0.274
GNG12 (UniProt Q9UBI6) | 0.329 | 1.21 | 1.3
GNL1 (UniProt P36915) | 0.175 | -0.411 | -0.369
GNL2 (UniProt Q13823) | -1.8 | -0.195 | -0.0312
GNL3 (UniProt Q9BVP2) | -0.437 | -0.0335 | 0.0515
GNL3L (UniProt Q9NVN8) | -0.0324 | -0.151 | 0.0609
GNPAT (UniProt O15228) | 0.518 | 0.161 | 0.296
GNPDA1 (UniProt P46926) | 0.272 | 0.699 | 0.687
GNPDA2 (UniProt Q8TDQ7) | -0.0337 | -0.212 | -0.181
GNPNAT1 (UniProt Q96EK6) | -1.03 | 0.365 | -0.348
GNPTAB (UniProt Q3T906) | -0.467 | -2.42 | -1.66
GNS (UniProt P15586) | -0.512 | -0.0525 | -0.0481
GOLGA1 (UniProt Q92805) | 0.92 | -0.956 | -0.268

Target | thermal stability z-score (potassium arsenate) | thermal stability z-score (lipoamide; [1]) | thermal stability z-score (lipoamide; arsenate co-treatment: none)
GOLGA2 (UniProt Q08379) | 0.679 | -0.426 | -0.0551
GOLGA3 (UniProt Q08378) | 0.587 | 0.291 | 0.128
GOLGA4 (UniProt Q13439) | 0.774 | -0.45 | 0.00058
GOLGA5 (UniProt Q8TBA6) | 0.197 | 0.419 | 0.582
GOLGA7 (UniProt Q7Z5G4) | -1.71 | -1.29 | -0.742
GOLGB1 (UniProt Q14789) | 0.886 | -0.345 | -0.0596
GOLIM4 (UniProt O00461) | 0.283 | -0.589 | -0.17
GOLM1 (UniProt Q8NBJ4) | -0.568 | 0.000985 | -0.136
GOLPH3 (UniProt Q9H4A6) | -0.641 | -0.65 | -0.881
GOLPH3L (UniProt Q9H4A5) | -0.58 | 0.105 | -1.21
GOLT1B (UniProt Q9Y3E0) | -0.117 | 0.0321 | 0.0691
GOPC (UniProt Q9HD26) | 0.591 | -0.587 | 0.0054
GORAB (UniProt Q5T7V8) | 0.527 | 0.521 | 0.173
GORASP2 (UniProt Q9H8Y8) | 0.824 | 0.45 | -0.749
GOSR1 (UniProt O95249) | -0.0465 | 0.726 | 0.473
GOT1 (UniProt P17174) | 0.118 | 0.656 | 0.623
GOT2 (UniProt P00505) | -0.0952 | 0.218 | 0.18
GPAA1 (UniProt O43292) | 0.145 | -1.09 | -1.12
GPALPP1 (UniProt Q8IXQ4) | -0.865 | -0.0123 | 0.162
GPAM (UniProt Q9HCL2) | -0.448 | 1.02 | -0.15
GPAT4 (UniProt Q86UL3) | -0.231 | -0.413 | 0.478
GPATCH2 (UniProt Q9NW75) | 0.239 | -0.115 | 0.00549
GPATCH4 (UniProt Q5T3I0) | 0.695 | 1.04 | 0.36
GPATCH8 (UniProt Q9UKJ3) | -0.238 | 1.48 | 0.761
GPATCH11 (UniProt Q8N954) | 0.108 | -0.804 | -0.268
GPBP1 (UniProt Q86WP2) | -0.111 | -0.514 | -0.441
GPBP1L1 (UniProt Q9HC44) | 0.365 | -0.469 | -0.326
